Legend:
[1] = tested on: influenza virus; assay: microbe, parasite or virus in culture; format: cell-based, influenza virus (MDBK or MDCK cells); conditions: unidentified influenza virus, 72 h, read-out: CPE EC50, effective concentration to achieve 50% CPE inhibition, 3 days incubation, WST-8
[2] = biological target: cap-dependent endonuclease (RNP fraction containing PB1•PB2•PA complex) (Influenza A virus, UniProt P15659); assay: biochemical; conditions: RNP from A/WSN/33 virus, capped Cy3/BHQ2 30mer RNA substrate, 60 minutes at room temperature; read-out: CEN IC50

Structure (SMILES) | EC50 [1] [nM] | IC50 [2] [nM]
CC(CN1CCN(C)CC1)N1CN(C2c3ccccc3CSc3ccccc32)n2ccc(=O)c(O)c2C1=O (centres unmarked) [Example 485] | 424 | 221
CC(CN1CCSCC1)N1CN(C2c3ccccc3CCc3ccccc32)n2ccc(=O)c(O)c2C1=O (centres unmarked) [Example 488] | 27 | 151
CC(C)(C)N1CN(C2c3ccccc3CSc3ccccc32)n2ccc(=O)c(O)c2C1=O (centres unmarked) [Example 308] | 19 | 72
COCCN1C[C@H](C(c2ccccc2)c2ccccc2)n2cc(C)c(=O)c(O)c2C1=O [Example 557] | 2470 | 281
CCN1CN(C2c3ccccc3CSc3c(Cl)cccc32)n2ccc(=O)c(O)c2C1=O (centres unmarked) [Example 330] | 19 | 26
CC(C)N1CN(C2c3ccccc3CCc3ccsc32)n2ccc(=O)c(O)c2C1=O (centres unmarked) [Example 388] | 63 | 133
CC(C)N1C(=O)c2c(O)c(=O)ccn2N(C2c3ccccc3CCc3ccccc32)C1CO (centres unmarked) [Example 547] | 27 | 32
CC(CO)N1CN(C(c2ccccc2)c2ccccc2)n2ccc(=O)c(O)c2C1=O (centres unmarked) [Example 368] | 470 | 140
CS(=O)(=O)CCN1CN(C2c3ccccc3CSc3ccccc32)n2ccc(=O)c(O)c2C1=O (centres unmarked) [Example 310] | 522 | 108
CN1CN(C2c3ccccc3CSc3cc(F)ccc32)n2ccc(=O)c(O)c2C1=O (centres unmarked) [Example 355] | 75 | 40
O=C1c2c(O)c(=O)ccn2N(C(c2ccccc2)c2ccccc2)CN1C1CCOC1 (centres unmarked) [Example 224] | 119 | 276
O=C1c2c(O)c(=O)ccn2C(C2c3ccccc3CCc3ccccc32)CN1c1ccccn1 (centres unmarked) [Example 569] | 1010 | 138
CN(C)CCN1CN(C2c3ccccc3CCc3ccccc32)n2ccc(=O)c(O)c2C1=O [Example 478] | 129 | 88
CC(C)N1CN(C2c3ccccc3OCc3c(F)cccc32)n2ccc(=O)c(O)c2C1=O (centres unmarked) [Example 407] | 17 | 35
COCCC1N(CCO)C(=O)c2c(O)c(=O)ccn2N1C1c2ccccc2CCc2ccccc21 (centres unmarked) [Example 552] | 85 | 230
COc1ccc(N2CN(C3c4ccccc4CSc4ccccc43)n3ccc(=O)c(O)c3C2=O)cc1 (centres unmarked) [Example 296] | 397 | 130
CC(C)N1CN(C2c3ccccc3COc3ccc(Cl)cc32)n2ccc(=O)c(O)c2C1=O (centres unmarked) [Example 398] | 118 | 34
CC(CCO)N1CN(C(c2ccccc2)c2ccccc2)n2ccc(=O)c(O)c2C1=O (centres unmarked) [Example 369] | 434 | 294
O=C1c2c(O)c(=O)ccn2N(C2c3ccccc3CCc3ccccc32)CN1CCOC(F)(F)F [Example 277] | 71 | 39
O=C1c2c(O)c(=O)ccn2C(C2c3ccccc3CCc3ccccc32)CN1c1cccnc1 (centres unmarked) [Example 570] | 2050 | 81
C[C@H](N1CN([C@H]2c3cc(F)ccc3CSc3ccccc32)n2ccc(=O)c(O)c2C1=O)C(F)(F)F [Example 447] | 18 | 96
O=C1c2c(O)c(=O)ccn2N(C2c3ccccc3CSc3ccccc32)CN1C(CO)CO (centres unmarked) [Example 366] | 838 | 90

Structure (SMILES) | EC50 [1] [nM] | IC50 [2] [nM]
CC(C)N1CN(C2c3cc(F)ccc3SCc3c(Cl)cccc32)n2ccc(=O)c(O)c2C1=O (centres unmarked) [Example 285] | 17 | 44
CC(C)N1CN(C2c3ccccc3NC(=O)c3ccccc32)n2ccc(=O)c(O)c2C1=O (centres unmarked) [Example 387] | 1150 | 300
CC(C)N1CN(C2c3cccc(F)c3CCc3c(F)cccc32)n2ccc(=O)c(O)c2C1=O [Example 281] | 18 | 26
CC(CN1CCCCC1)N1CN(C2c3ccccc3CSc3ccccc32)n2ccc(=O)c(O)c2C1=O (centres unmarked) [Example 487] | 26 | 91
CC(C)N1CN(C2c3cc(Cl)ccc3CCc3ccc(Cl)cc32)n2ccc(=O)c(O)c2C1=O [Example 280] | 145 | 68
CC(C)(O)CN1CN(C2c3ccccc3CCc3ccccc32)n2ccc(=O)c(O)c2C1=O [Example 370] | 61 | 113
CC(C)CN1CC(N2CN(C3c4ccccc4CCc4ccccc43)n3ccc(=O)c(O)c3C2=O)C1 [Example 248] | 489 | 103
O=C1c2c(O)c(=O)ccn2N(C(c2ccccc2)c2ccccc2)CN1CCNS(=O)(=O)c1ccccc1 [Example 143] | 333 | 224
COCCN1CN(C2c3cc(F)ccc3COc3ccccc32)n2ccc(=O)c(O)c2C1=O (centres unmarked) [Example 404] | 63 | 84
CC(C)N1CN(C2c3ccccc3CSc3ccc(F)cc32)n2ccc(=O)c(O)c2C1=O (centres unmarked) [Example 329] | 23 | 58
C[C@H](N1CN([C@@H]2c3ccccc3SCc3c(Cl)cccc32)n2ccc(=O)c(O)c2C1=O)C(F)(F)F [Example 419] | 19 | 124
O=C1c2c(O)c(=O)ccn2N(C2c3ccccc3CSc3ccccc32)CN1[C@@H]1CCN(CCO)C1 (some centres unmarked) [Example 290] | 492 | 67
NN1CC(C2c3ccccc3CCc3ccccc32)n2ccc(=O)c(O)c2C1=O (centres unmarked) [Example 571] | 320 | 65
COc1ccc2c(c1)CCc1ccccc1C2N1CN(C(C)C)C(=O)c2c(O)c(=O)ccn21 (centres unmarked) [Example 278] | 74 | 205
CN(C)CCN1CC(C2c3ccccc3CCc3ccccc32)n2ccc(=O)c(O)c2C1=O (centres unmarked) [Example 565] | 726 | 154
COC(=O)NCC1N(C(C)C)C(=O)c2c(O)c(=O)ccn2N1C1c2ccccc2CCc2ccccc21 (centres unmarked) [Example 544] | 51 | 168
CN1CN(C2c3ccccc3CCc3ccccc32)n2ccc(=O)c(O)c2C1=O [Example 273] | 84 | 16
CN1CN(C2c3ccccc3CSc3ccc(F)cc32)n2ccc(=O)c(O)c2C1=O (centres unmarked) [Example 349] | 75 | 53
CN1CN(C2c3ccccc3CSc3c(Cl)cccc32)n2ccc(=O)c(O)c2C1=O (centres unmarked) [Example 347] | 17 | 14
COCCN1CN(C2c3ccccc3CSc3cc(Cl)ccc32)n2ccc(=O)c(O)c2C1=O (centres unmarked) [Example 334] | 32 | 75
CC(C)N1C[C@H](C2c3ccccc3CSc3ccccc32)n2ccc(=O)c(O)c2C1=O (some centres unmarked) [Example 561] | 8 | 73
COCCN1CN(C2c3ccccc3COc3ccccc32)n2ccc(=O)c(O)c2C1=O (centres unmarked) [Example 394] | 64 | 87

Structure (SMILES) | EC50 [1] [nM] | IC50 [2] [nM]
COC[C@H](C)N1C(=O)c2c(O)c(=O)ccn2N(C2c3ccccc3CCc3ccccc32)[C@@H]1CO [Example 555] | 12 | 23
COCCCN1CN(C2c3ccccc3CSc3ccccc32)n2ccc(=O)c(O)c2C1=O (centres unmarked) [Example 311] | 26 | 40
O=C1c2c(O)c(=O)ccn2[C@@H](C(c2ccccc2)c2ccccc2)CN1Cc1ccccc1 [Example 37] | 318 | 101
CCC(COC)N1CN(C(c2ccccc2)c2ccccc2)n2ccc(=O)c(O)c2C1=O (centres unmarked) [Example 228] | 141 | 243
COCCC1N(C(C)C)C(=O)c2c(O)c(=O)ccn2N1C1c2ccccc2CCc2ccccc21 (centres unmarked) [Example 511] | 15 | 175
C[C@@H](N1CN(C2c3ccccc3CSc3ccccc32)n2ccc(=O)c(O)c2C1=O)C(C)(C)C (some centres unmarked) [Example 320] | 11 | 45
CSCCC1N(C(C)C)C(=O)c2c(O)c(=O)ccn2N1C1c2ccccc2CCc2ccccc21 (centres unmarked) [Example 516] | 17 | 39
Cc1cc(CN2CN(C3c4ccccc4CSc4ccccc43)n3ccc(=O)c(O)c3C2=O)no1 (centres unmarked) [Example 305] | 103 | 59
CC(C)N1C[C@H](C2c3ccccc3CCc3ccccc32)n2ccc(=O)c(O)c2C1=O [Example 576] | 27 | 63
CC(C)N1CN([C@@H]2c3ccccc3[C@@H]3[C@H](c4ccccc42)C3(F)F)n2ccc(=O)c(O)c2C1=O [Example 386] | 96 | 75
CN(CCN1CN(C(c2ccccc2)c2ccccc2)n2ccc(=O)c(O)c2C1=O)S(C)(=O)=O [Example 139] | 741 | 189
O=C1c2c(O)c(=O)ccn2N(C2c3ccccc3CSc3ccccc32)CN1CC(F)F (centres unmarked) [Example 294] | 18 | 35
CC(C)N1CN(C2c3cc(Cl)ccc3COc3ccccc32)n2ccc(=O)c(O)c2C1=O (centres unmarked) [Example 408] | 61 | 135
CS(=O)(=O)N1CC[C@@H](N2CN(C3c4ccccc4CCc4ccccc43)n3ccc(=O)c(O)c3C2=O)C1 [Example 251] | 157 | 58
CCN1C(=O)c2c(O)c(=O)ccn2C(C(c2ccccc2)C2CCCCC2)N1CC (centres unmarked) [Example 493] | 101 | 112
CC(C)N1CN(C2c3ccccc3COc3cc(F)ccc32)n2ccc(=O)c(O)c2C1=O (centres unmarked) [Example 399] | 61 | 105
CC(C)(O)CN1CN(C2c3ccccc3CSc3ccccc32)n2ccc(=O)c(O)c2C1=O (centres unmarked) [Example 371] | 74 | 161
CCN1C[C@H](C(c2ccccc2)c2ccccc2)n2cc(C(=O)O)c(=O)c(O)c2C1=O [Example 14] | 313 | 43
CC(C)N1CN(C2c3ccccc3COc3c(Cl)cccc32)n2ccc(=O)c(O)c2C1=O (centres unmarked) [Example 390] | 29 | 95
CC(C)N1CN(C2c3ccccc3CSc3cc(Cl)ccc32)n2ccc(=O)c(O)c2C1=O (centres unmarked) [Example 327] | 24 | 92
